Where two headings read alike, the source gives them in different places.
Tested on: S. aureus clinical isolates
Assay: microbe, parasite or virus in culture
Type: cell-based

Measured: MIC

CC(=O)NC[C@H]1CN(c2ccc(N3CCOCC3)c(F)c2)C(=O)O1 [Linezolid]
1 µg/mL: Staphylococcus aureus, MRSA / NRS 3 / VISA, S. aureus IHMA 1308243, NRS3, MRSA / VISA, read-out: MIC | Staphylococcus aureus, MRSA / NRS 4 / VISA, S. aureus IHMA 649380, NRS4, MRSA / VISA, read-out: MIC | Staphylococcus aureus, MRSA / NRS 21 / VISA, S. aureus IHMA 649388, NRS21, MRSA / VISA, read-out: MIC | Staphylococcus aureus, MRSA / NRS 22 / USA600 / VISA, S. aureus IHMA 649389, NRS22, MRSA / VISA, USA600, read-out: MIC | Staphylococcus aureus, MRSA / NRS 24 / VISA, S. aureus IHMA 649391, NRS24, MRSA / VISA, read-out: MIC | Staphylococcus aureus, MRSA / NRS 26, S. aureus IHMA 649392, NRS26, MRSA / VSSA, read-out: MIC | Staphylococcus aureus, MRSA / NRS 29 / VISA, S. aureus IHMA 1308250, NRS29, MRSA / VISA, read-out: MIC | Staphylococcus aureus, MRSA / NRS 37 / VISA, S. aureus IHMA 1308251, NRS37, MRSA / VISA, read-out: MIC | Staphylococcus aureus, MRSA / NRS 54, S. aureus IHMA 1308253, NRS54, MRSA / VSSA* (*Expected VAN intermediate, confirmed VAN susceptible twice), test date 2018-11-07, read-out: MIC | Staphylococcus aureus, MRSA / NRS 56 / VISA, S. aureus IHMA 1308254, NRS56, MRSA / VISA, read-out: MIC | Staphylococcus aureus, MRSA / USA100 / VRSA, S. aureus IHMA 672230, VRS1, MRSA / VRSA, USA100, read-out: MIC | Staphylococcus aureus, MRSA / USA100 / VRSA, S. aureus IHMA 672231, VRS2, MRSA / VRSA, USA100, read-out: MIC | Staphylococcus aureus, MRSA / USA100 / VRSA, S. aureus IHMA 672238, VRS8, MRSA / VRSA, USA100, read-out: MIC | Staphylococcus aureus, MRSA / USA100 / VRSA, S. aureus IHMA 672239, VRS9, MRSA / VRSA, USA100, read-out: MIC | Staphylococcus aureus, MRSA / USA100 / VRSA, S. aureus IHMA 1308258, VRS11b, MRSA / VRSA, USA100, read-out: MIC | Staphylococcus aureus, MRSA / USA800 / VRSA, S. aureus IHMA 672233, VRS3b, MRSA / VRSA, USA800, read-out: MIC | Staphylococcus aureus, MRSA, S. aureus IHMA 1583795, MRSA / VSSA, read-out: MIC | Staphylococcus aureus, MRSA, S. aureus IHMA 1586780, MRSA / VSSA, read-out: MIC | Staphylococcus aureus, MRSA, S. aureus IHMA 1588127, MRSA / VSSA, read-out: MIC | Staphylococcus aureus, MRSA, S. aureus IHMA 1597106, MRSA / VSSA, read-out: MIC | Staphylococcus aureus, MRSA, S. aureus IHMA 1620441, MRSA / VSSA, read-out: MIC
4 µg/mL: S. aureus ATCC 29213, MSSA / VSSA, test date 2018-10-25 (three repeat lines) | Staphylococcus aureus, MRSA / USA100 / VRSA, S. aureus IHMA 1308256, VRS10, MRSA / VRSA, USA100, read-out: MIC | Staphylococcus aureus, MRSA, S. aureus IHMA 1569509, MRSA / VSSA, read-out: MIC | Staphylococcus aureus, MRSA, S. aureus IHMA 1575629, MRSA / VSSA, read-out: MIC | Staphylococcus aureus, MRSA, S. aureus IHMA 1584223, MRSA / VSSA, read-out: MIC | Staphylococcus aureus, MRSA, S. aureus IHMA 1591462, MRSA / VSSA, read-out: MIC | Staphylococcus aureus, MRSA, S. aureus IHMA 1602095, MRSA / VSSA, read-out: MIC | Staphylococcus aureus, MRSA, S. aureus IHMA 1611612, MRSA / VSSA, read-out: MIC
0.5 µg/mL: Staphylococcus aureus, MRSA / NRS 19 / VISA, S. aureus IHMA 649387, NRS19, MRSA / VISA, read-out: MIC | Staphylococcus aureus, MRSA, S. aureus IHMA 1580300, MRSA / VSSA, read-out: MIC
2 µg/mL: Staphylococcus aureus, ATCC 29213 / MSSA, S. aureus ATCC 29213, MSSA / VSSA, test date 2018-10-25 (three repeat lines), read-out: MIC | Staphylococcus aureus, ATCC 29213 / MSSA, S. aureus ATCC 29213, MSSA / VSSA, test date 2018-11-07, read-out: MIC | Staphylococcus aureus, MRSA / NRS 18 / VISA, S. aureus IHMA 649386, NRS18, MRSA / VISA, read-out: MIC | Staphylococcus aureus, MRSA / NRS 23 / VISA, S. aureus IHMA 649390, NRS23, MRSA / VISA, read-out: MIC | Staphylococcus aureus, MRSA / NRS 27 / VISA, S. aureus IHMA 1308248, NRS27, MRSA / VISA, read-out: MIC | Staphylococcus aureus, MRSA / USA100 / VRSA, S. aureus IHMA 672234, VRS4, MRSA / VRSA, USA100, read-out: MIC | Staphylococcus aureus, MRSA / USA100 / VRSA, S. aureus IHMA 672235, VRS5, MRSA / VRSA, USA100, read-out: MIC | Staphylococcus aureus, MRSA / USA100 / VRSA, S. aureus IHMA 672237, VRS7, MRSA / VRSA, USA100, read-out: MIC | Staphylococcus aureus, MRSA, S. aureus IHMA 1575268, MRSA / VSSA, read-out: MIC | Staphylococcus aureus, MRSA, S. aureus IHMA 1577820, MRSA / VSSA, read-out: MIC | Staphylococcus aureus, MRSA, S. aureus IHMA 1580940, MRSA / VSSA, read-out: MIC | Staphylococcus aureus, MRSA, S. aureus IHMA 1582100, MRSA / VSSA, read-out: MIC | Staphylococcus aureus, MRSA, S. aureus IHMA 1585316, MRSA / VSSA, read-out: MIC | Staphylococcus aureus, MRSA, S. aureus IHMA 1587322, MRSA / VSSA, read-out: MIC | Staphylococcus aureus, MRSA, S. aureus IHMA 1592755, MRSA / VSSA, read-out: MIC | Staphylococcus aureus, MRSA, S. aureus IHMA 1592776, MRSA / VSSA, read-out: MIC | Staphylococcus aureus, MRSA, S. aureus IHMA 1611170, MRSA / VSSA, read-out: MIC | Staphylococcus aureus, MRSA, S. aureus IHMA 1612228, MRSA / VSSA, read-out: MIC

From paper PMC7561186, “Rational design of balanced dual-targeting antibiotics with limited resistance” (PLoS Biology, 2020)
